This note sets out measurements from patent US5284853A, “Angiotensin II receptor blocking 2,3,6 substituted quinazolinones” (American Cyanamid Company, priority 1993, dated 1994).

For the assay, the target named is T1, Angiotensin II Receptor (Bos taurus, UniProt P25104).
T1 construct: The brownish tissue forming the adrenal cortex is scraped off and finely minced with scissors before homogenization; tissue local slaughter house (Maxwell-Cohen); host or cells: beef adrenal cortex, microsomal membranes (100,000×g pellet)
T1 sequence (P25104 1-359): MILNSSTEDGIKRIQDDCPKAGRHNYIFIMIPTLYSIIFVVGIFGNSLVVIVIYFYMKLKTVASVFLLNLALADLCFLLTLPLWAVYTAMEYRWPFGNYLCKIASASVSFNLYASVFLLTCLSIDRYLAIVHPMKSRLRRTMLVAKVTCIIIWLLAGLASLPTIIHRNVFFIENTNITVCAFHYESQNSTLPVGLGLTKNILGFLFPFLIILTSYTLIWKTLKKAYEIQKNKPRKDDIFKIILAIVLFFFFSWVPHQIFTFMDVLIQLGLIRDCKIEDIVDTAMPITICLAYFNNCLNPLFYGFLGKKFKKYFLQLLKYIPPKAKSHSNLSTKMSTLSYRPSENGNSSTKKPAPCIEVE
In words: Receptor binding assay: competition of [^125 I](Sar^1,Ile^8)AngII binding to beef adrenal cortex microsomal membranes. As to conditions: 60 min, room temperature, pH 7.4.

pIC50: −log10 of the molar value.

As usually defined, the pIC50 is −log10 of the IC50, conventionally taken in molar units. Lower therefore signals a high IC50. Compound `CCCCc1nc2ccc(C3CC(c4ccc(C)o4)=NO3)cc2c(=O)n1Cc1ccc(-c2ccccc2-c2nnn[nH]2)cc1` (stereo not shown) [Example 19] gave a negative logarithm of the IC50 (pIC50) of 6.77.
